From patent publication US4594329A, “CRF analogs” (The Salk Institute for Biological Studies, priority 1984, dated 1986)
Square brackets hold non-standard residues; d marks the D form. Peptide text beside a SMILES is read from it. * marks the point of attachment. Nle = CCCC[C@H](N)C(=O)O; Orn = NCCC[C@H](N)C(=O)O; Bz = O=C(c1ccccc1)*

Experiments:
[1] = test system: cultured rat pituitary cells; experiment: secretion of ACTH and β-endorphin by cultured rat pituitary cells; assay type: cell-based
Procedure: (§1) The synthetic peptide AHC and oCRF were examined for their effects on the secretion of ACTH and β-endorphin in vitro and was also in vivo. The potency of synthetic oCRF to stimulate the secretion of ACTH and β-endorphin by cultured rat pituitary cells was measured using the procedure as generally set forth in Endocrinology, 91, 562 (1972). […] In vivo testing is carried out using the general procedure set forth in C. Rivier et al., Science, 218, 377 (1982).

[2] = lowering of blood pressure, in vivo testing; settings: for lowering of blood pressure: general procedure of Example III
Procedure: as §1

[3] = general procedure of Example III

Molecule | secretion of ACTH and β-END-LI, amount relative to oCRF ([1]; % of oCRF, general procedure of Example III) | lowering of blood pressure [2] | stimulates the secretion of ACTH and β-END-LI [1, 3] | lowering of blood pressure compared with rCRF ([2]; comparison with rCRF) | secretion of ACTH and β-END-LI compared with oCRF ([1]; comparison with oCRF)
CCCC[C@H](NC(=O)[C@H](CCC(=O)O)NC(=O)[C@H](CC(C)C)NC(=O)[C@H](CCCC)NC(=O)[C@H](CCC(=O)O)NC(=O)[C@H](CCCNC(=N)N)NC(=O)[C@H](CC(C)C)NC(=O)[C@H](CC(C)C)NC(=O)[C@H](Cc1c[nH]cn1)NC(=O)[C@H](Cc1ccccc1)NC(=O)[C@@H](NC(=O)[C@H](CC(C)C)NC(=O)[C@H](CC(=O)O)NC(=O)[C@H](CC(C)C)NC(=O)[C@H](CO)NC(=O)[C@@H](NC(=O)[C@@H]1CCCN1C(=O)[C@H]1CCCN1C(=O)[C@H](N)Cc1ccc(O)cc1)[C@@H](C)CC)[C@@H](C)O)C(=O)N[C@@H](C)C(=O)N[C@@H](CCCCN)C(=O)N[C@@H](C)C(=O)N[C@@H](CCC(=O)O)C(=O)N[C@@H](CCC(N)=O)C(=O)N[C@@H](CCC(=O)O)C(=O)N[C@@H](C)C(=O)N[C@@H](CCC(=O)O)C(=O)N[C@@H](CCC(N)=O)C(=O)N[C@@H](C)C(=O)N[C@@H](C)C(=O)N[C@@H](CC(C)C)C(=O)N[C@@H](CC(N)=O)C(=O)N[C@@H](CCCNC(=N)N)C(=O)N[C@@H](CC(C)C)C(=O)N[C@@H](CC(C)C)C(=O)N[C@@H](CC(C)C)C(=O)N[C@@H](CCC(=O)O)C(=O)N[C@@H](CCC(=O)O)C(=O)N[C@@H](C)C(N)=O [[D-Tyr^3, D-Pro^4, Nle^18,21]-AHC(3-41)] (H-[dY][dP]PISLDLTFHLLRE[Nle]LE[Nle]AKAEQEAEQAALNRLLLEEA-NH2) | about 470% | very significant lowering of blood pressure |  |  | 
Ac-GEEPPISLDLTFHLLREVLEMARAEQLAQQAHLNRKLMEEI-NH2 [[Acetyl-Gly^1, Leu^33, Glu^40]-rCRF] |  | very significant lowering of blood pressure | stimulates the secretion of ACTH and β-END-LI |  | 
H-SEEPPISLDLTFHLLREVLEMTRAEQLAEQAHSNRKLMEEI-NH2 [[Thr^22, Glu^29,40]-rCRF] |  | very significant lowering of blood pressure | stimulates the secretion of ACTH and β-END-LI |  | 
CC[C@H](C)[C@H](NC(=O)[C@@H](NC(=O)[C@H](CC(=O)O)NC(=O)[C@H](CC(C)C)NC(=O)[C@H](CC(C)C)NC(=O)[C@H](CC(C)C)NC(=O)[C@H](CCCNC(=N)N)NC(=O)[C@H](CC(N)=O)NC(=O)[C@H](CC(N)=O)NC(=O)[C@H](C)NC(=O)[C@H](C)NC(=O)[C@H](CCC(N)=O)NC(=O)[C@H](CCC(=O)O)NC(=O)[C@H](CCCCN)NC(=O)[C@H](CCC(=O)O)NC(=O)[C@H](CCCCN)NC(=O)[C@H](CCC(=O)O)NC(=O)[C@H](CCC(N)=O)NC(=O)[C@H](CCCCN)NC(=O)[C@H](CCCNC(=N)N)NC(=O)[C@H](C)NC(=O)[C@H](CCC(=O)O)NC(=O)[C@@H](NC(=O)[C@H](CCSC)NC(=O)[C@H](CCCCN)NC(=O)[C@H](CCCNC(=N)N)NC(=O)[C@H](CC(C)C)NC(=O)[C@H](CC(C)C)NC(=O)[C@H](CCC(=O)O)NC(=O)[C@H](CC(C)C)NC(=O)[C@H](CO)NC(=O)[C@H](CC(C)C)NC(=O)[C@H](CC(=O)O)NC(=O)[C@@H](NC(=O)[C@H](CO)NC(=O)[C@@H](NC(=O)[C@@H]1CCCN1C(=O)[C@@H]1CCCN1C(=O)CNC(=O)[C@@H]1CCC(=O)N1)[C@@H](C)CC)[C@@H](C)CC)[C@@H](C)CC)[C@@H](C)CC)C(N)=O |  | very significant lowering of blood pressure | stimulates the secretion of ACTH and β-END-LI |  | 
H-SEEPPISLELTFHLLREVLE[Nle]ARAEQLAEQAHLNRKLMEII-NH2 [[Glu^9, Nle^21, Glu^29, Leu^33]-rCRF] |  | very significant lowering of blood pressure | stimulates the secretion of ACTH and β-END-LI | to a greater extent than rCRF | 
H-PPISIDLSLELLRKMIEIAKQEKEKEQAANNRLLMDTI-NH2 |  | very significant lowering of blood pressure | stimulates the secretion of ACTH and β-END-LI |  | 
H-SEEPPISLDLTLELLREMLEME[Orn]AEKEAEQAALNRLLLEEA-NH2 |  | very significant lowering of blood pressure | stimulates the secretion of ACTH and β-END-LI |  | 
CCCC[C@H](NC(=O)[C@H](CCC(=O)O)NC(=O)[C@H](CC(C)C)NC(=O)[C@H](CCCC)NC(=O)[C@H](CCC(=O)O)NC(=O)[C@H](CCCNC(=N)N)NC(=O)[C@H](CC(C)C)NC(=O)[C@H](CC(C)C)NC(=O)[C@H](Cc1c[nH]cn1)NC(=O)[C@H](Cc1ccccc1)NC(=O)[C@@H](NC(=O)[C@H](CC(C)C)NC(=O)[C@H](CC(=O)O)NC(=O)[C@H](CC(C)C)NC(=O)[C@H](CO)NC(=O)[C@@H](NC(=O)[C@@H]1CCCN1C(=O)[C@@H]1CCCN1C(=O)[C@H](N)Cc1ccc(O)cc1)[C@@H](C)CC)[C@@H](C)O)C(=O)N[C@@H](C)C(=O)N[C@@H](CCCCN)C(=O)N[C@@H](C)C(=O)N[C@@H](CCC(=O)O)C(=O)N[C@@H](CCC(N)=O)C(=O)N[C@@H](CCC(=O)O)C(=O)N[C@@H](C)C(=O)N[C@@H](CCC(=O)O)C(=O)N[C@@H](CCC(N)=O)C(=O)N[C@@H](C)C(=O)N[C@@H](C)C(=O)N[C@@H](CC(C)C)C(=O)N[C@@H](CC(N)=O)C(=O)N[C@@H](CCCNC(=N)N)C(=O)N[C@@H](CC(C)C)C(=O)N[C@@H](CC(C)C)C(=O)N[C@@H](CC(C)C)C(=O)N[C@@H](CCC(=O)O)C(=O)N[C@@H](CCC(=O)O)C(=O)N[C@@H](C)C(N)=O [[D-Tyr^3, Nle^18,21]-AHC(3-41)] (H-[dY]PPISLDLTFHLLRE[Nle]LE[Nle]AKAEQEAEQAALNRLLLEEA-NH2) |  | very significant lowering of blood pressure | stimulates the secretion of ACTH and β-END-LI |  | 
CCCC[C@H](NC(=O)[C@H](CCC(=O)O)NC(=O)[C@H](CC(C)C)NC(=O)[C@@H](NC(=O)[C@H](CCC(=O)O)NC(=O)[C@H](CCCNC(=N)N)NC(=O)[C@H](CC(C)C)NC(=O)[C@H](CC(C)C)NC(=O)[C@H](Cc1c[nH]cn1)NC(=O)[C@H](Cc1ccccc1)NC(=O)[C@@H](NC(=O)[C@H](CC(C)C)NC(=O)[C@H](CC(=O)O)NC(=O)[C@H](CC(C)C)NC(=O)[C@H](CO)NC(=O)[C@@H](NC(=O)[C@@H]1CCCN1C(=O)[C@H]1CCCN1)[C@@H](C)CC)[C@@H](C)O)C(C)C)C(=O)N[C@@H](C)C(=O)N[C@@H](CCCNC(=N)N)C(=O)N[C@@H](C)C(=O)N[C@@H](CCC(=O)O)C(=O)N[C@@H](CCC(N)=O)C(=O)N[C@@H](CC(C)C)C(=O)N[C@@H](C)C(=O)N[C@@H](CCC(N)=O)C(=O)N[C@@H](CCC(N)=O)C(=O)N[C@@H](C)C(=O)N[C@@H](Cc1c[nH]cn1)C(=O)N[C@@H](CO)C(=O)N[C@@H](CC(N)=O)C(=O)N[C@@H](CCCNC(=N)N)C(=O)N[C@@H](CCCCN)C(=O)N[C@@H](CC(C)C)C(=O)N[C@@H](CCSC)C(=O)N[C@@H](CCC(=O)O)C(=O)N[C@H](C(=O)N[C@H](C(N)=O)[C@@H](C)CC)[C@@H](C)CC [[D-Pro^4,Nle^21,38]-rCRF(4-41)] (H-[dP]PISLDLTFHLLREVLE[Nle]ARAEQLAQQAHSNRKLMEII-NH2) |  | very significant lowering of blood pressure |  |  | in an amount greater than oCRF
H-SQEPPISLELTFHLLRE[Nle]LE[Nle]AKAEQEAEQAALNRLLLEEA-NH2 [[Glu^9, Nle^18, 21]-AHC] |  | very significant lowering of blood pressure | stimulates the secretion of ACTH and β-END-LI |  | 
H-SQEPPISLDLTFHLLREVLE[Nle]TKADQLAEQAHSNRKLLDIA-NH2 [[Nle^21,Glu^29]-oCRF] |  | very significant lowering of blood pressure | stimulates the secretion of ACTH and β-END-LI |  | 
CCCC[C@H](NC(=O)[C@@H](NC(=O)[C@H](CC(C)C)NC(=O)[C@H](CC(=O)O)NC(=O)[C@H](CC(C)C)NC(=O)[C@H](CO)NC(=O)[C@@H](NC(=O)[C@@H]1CCCN1C(=O)[C@@H]1CCCN1C(=O)[C@H](CCC(=O)O)NC(=O)CNC(=O)c1ccccc1)[C@@H](C)CC)[C@@H](C)O)C(=O)N[C@@H](Cc1c[nH]cn1)C(=O)N[C@@H](CC(C)C)C(=O)N[C@@H](CC(C)C)C(=O)N[C@@H](CCCNC(=N)N)C(=O)N[C@@H](CCC(=O)O)C(=O)N[C@H](C(=O)N[C@@H](CC(C)C)C(=O)N[C@@H](CCC(=O)O)C(=O)N[C@@H](CCSC)C(=O)N[C@@H](C)C(=O)N[C@@H](CCCNC(=N)N)C(=O)N[C@@H](C)C(=O)N[C@@H](CCC(=O)O)C(=O)N[C@@H](CCC(N)=O)C(=O)N[C@@H](CC(C)C)C(=O)N[C@@H](C)C(=O)N[C@@H](CCC(=O)O)C(=O)N[C@@H](CCC(N)=O)C(=O)N[C@@H](C)C(=O)N[C@@H](Cc1c[nH]cn1)C(=O)N[C@@H](CO)C(=O)N[C@@H](CC(N)=O)C(=O)N[C@@H](CCCNC(=N)N)C(=O)N[C@@H](CCCNC(=N)N)C(=O)N[C@@H](CC(C)C)C(=O)N[C@@H](CCSC)C(=O)N[C@@H](CCC(=O)O)C(=O)N[C@H](C(=O)N[C@H](C(N)=O)[C@@H](C)CC)[C@@H](C)CC)C(C)C (Bz-GEPPISLDLT[Nle]HLLREVLEMARAEQLAEQAHSNRRLMEII-NH2) |  | very significant lowering of blood pressure | stimulates the secretion of ACTH and β-END-LI |  | 
